Assay results reported in ChEMBL document CHEMBL5465560, “Selectivity Literature for EUbOPEN Chemogenomic Library” (2024).
Blank lines part the entries; values can stand above or below the compound they belong to.

Assays:
[1] = test system: T1, Receptor-type tyrosine-protein kinase FLT3 (Homo sapiens), P36888 [K663Q]; conditions: at 10 µM
T1 sequence (whole entry): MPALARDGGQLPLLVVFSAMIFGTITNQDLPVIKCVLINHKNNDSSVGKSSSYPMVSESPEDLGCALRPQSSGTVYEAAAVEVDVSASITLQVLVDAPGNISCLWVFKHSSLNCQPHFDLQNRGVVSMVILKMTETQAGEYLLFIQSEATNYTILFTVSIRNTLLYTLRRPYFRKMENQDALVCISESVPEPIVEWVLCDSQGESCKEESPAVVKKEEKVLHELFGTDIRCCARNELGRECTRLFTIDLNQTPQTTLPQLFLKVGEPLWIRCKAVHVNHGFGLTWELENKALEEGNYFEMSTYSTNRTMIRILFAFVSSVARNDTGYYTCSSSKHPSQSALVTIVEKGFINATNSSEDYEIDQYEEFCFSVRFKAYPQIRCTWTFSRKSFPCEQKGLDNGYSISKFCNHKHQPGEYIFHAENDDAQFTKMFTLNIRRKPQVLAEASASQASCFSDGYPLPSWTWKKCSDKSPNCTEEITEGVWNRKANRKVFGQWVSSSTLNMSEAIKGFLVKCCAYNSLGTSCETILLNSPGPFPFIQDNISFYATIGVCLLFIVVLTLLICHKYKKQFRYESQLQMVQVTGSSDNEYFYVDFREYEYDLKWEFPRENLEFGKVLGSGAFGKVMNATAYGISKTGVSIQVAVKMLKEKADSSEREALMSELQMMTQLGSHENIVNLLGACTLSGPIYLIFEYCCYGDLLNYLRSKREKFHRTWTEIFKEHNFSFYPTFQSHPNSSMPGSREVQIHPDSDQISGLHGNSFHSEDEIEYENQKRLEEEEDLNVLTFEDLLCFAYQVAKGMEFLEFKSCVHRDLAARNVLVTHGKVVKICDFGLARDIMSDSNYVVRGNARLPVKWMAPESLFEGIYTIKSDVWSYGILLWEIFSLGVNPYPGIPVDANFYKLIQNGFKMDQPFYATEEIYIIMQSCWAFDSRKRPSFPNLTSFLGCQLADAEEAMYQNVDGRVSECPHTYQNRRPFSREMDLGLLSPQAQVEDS

[2] = biological target: T2, Serine/threonine-protein kinase 3 (Homo sapiens) (UniProt Q13188); experiment: Selectivity interaction (Millipore kinase profiler) EUB0000124b STK3; conditions: at 10 µM
T2 sequence (whole entry): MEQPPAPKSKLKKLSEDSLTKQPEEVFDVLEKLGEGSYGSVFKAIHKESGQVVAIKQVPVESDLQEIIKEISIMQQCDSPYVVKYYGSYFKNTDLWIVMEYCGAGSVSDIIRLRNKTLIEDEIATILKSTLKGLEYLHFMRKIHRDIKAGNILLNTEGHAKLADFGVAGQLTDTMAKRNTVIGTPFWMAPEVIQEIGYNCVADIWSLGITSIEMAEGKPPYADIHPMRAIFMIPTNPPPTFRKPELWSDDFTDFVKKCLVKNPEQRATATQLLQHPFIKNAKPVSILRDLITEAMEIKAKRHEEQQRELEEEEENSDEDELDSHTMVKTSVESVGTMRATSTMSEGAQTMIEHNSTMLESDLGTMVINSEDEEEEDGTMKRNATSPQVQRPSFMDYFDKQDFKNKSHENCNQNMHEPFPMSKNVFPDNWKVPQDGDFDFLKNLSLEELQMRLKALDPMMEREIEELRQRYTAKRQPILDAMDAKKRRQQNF

[3] = biological target: Tyrosine-protein kinase BTK (Homo sapiens, UniProt Q06187); experiment: Selectivity interaction (Ambit KINOMEscan and KiNATiv profiling in Jurkat cells) EUB0000090b BTK; assay type: cell-based; conditions: at 1 µM
[4] = biological target: Mitogen-activated protein kinase 4 (Homo sapiens) (UniProt P31152); experiment: Selectivity interaction (Ambit KINOMEscan and KiNATiv profiling in Jurkat cells) EUB0000090b MAPK4; assay type: cell-based; conditions: at 1 µM
[5] = biological target: T3, Ephrin type-B receptor 1 (Homo sapiens) (UniProt P54762); experiment: Selectivity interaction (KinomeScan (DiscoverX)) EUB0001619a EPHB1; conditions: at 1 µM
T3 sequence (whole entry): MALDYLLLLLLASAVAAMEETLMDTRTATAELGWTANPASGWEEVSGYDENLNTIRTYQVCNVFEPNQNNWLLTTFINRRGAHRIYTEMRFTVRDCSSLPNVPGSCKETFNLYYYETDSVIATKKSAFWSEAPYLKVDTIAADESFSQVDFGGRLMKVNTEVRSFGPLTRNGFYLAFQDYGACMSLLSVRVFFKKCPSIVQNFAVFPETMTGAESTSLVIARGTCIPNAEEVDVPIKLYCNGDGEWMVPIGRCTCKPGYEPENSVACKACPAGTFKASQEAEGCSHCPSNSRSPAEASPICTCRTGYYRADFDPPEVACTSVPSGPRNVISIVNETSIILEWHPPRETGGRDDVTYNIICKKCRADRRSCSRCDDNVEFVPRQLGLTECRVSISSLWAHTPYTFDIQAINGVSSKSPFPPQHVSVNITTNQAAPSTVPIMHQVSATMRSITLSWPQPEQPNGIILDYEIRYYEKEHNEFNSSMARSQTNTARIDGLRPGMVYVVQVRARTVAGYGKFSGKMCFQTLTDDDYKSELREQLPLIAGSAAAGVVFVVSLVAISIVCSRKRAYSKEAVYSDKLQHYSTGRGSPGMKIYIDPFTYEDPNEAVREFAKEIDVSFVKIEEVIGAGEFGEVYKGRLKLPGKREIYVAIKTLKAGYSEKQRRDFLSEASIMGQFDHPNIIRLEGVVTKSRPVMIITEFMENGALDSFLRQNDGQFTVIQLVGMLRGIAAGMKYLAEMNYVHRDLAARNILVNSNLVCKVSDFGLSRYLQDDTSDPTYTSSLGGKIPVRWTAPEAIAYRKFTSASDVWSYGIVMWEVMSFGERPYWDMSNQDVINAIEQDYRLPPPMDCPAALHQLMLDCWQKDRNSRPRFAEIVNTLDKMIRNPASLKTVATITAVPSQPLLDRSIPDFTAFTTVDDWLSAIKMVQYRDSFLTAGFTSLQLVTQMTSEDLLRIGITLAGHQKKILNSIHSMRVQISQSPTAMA

[6] = biological target: Fibroblast growth factor receptor 4 (Homo sapiens, UniProt P22455); experiment: Selectivity interaction (KinomeScan (DiscoverX)) EUB0000618a FGFR4; conditions: at 10 µM
[7] = test system: Hepatocyte growth factor receptor (Homo sapiens), P08581 [M1250T]; experiment: (§1) Selectivity interaction (KinomeScan (DiscoverX)) EUB0000618a MET; conditions: at 10 µM
[8] = test system: Hepatocyte growth factor receptor (Homo sapiens), P08581 [Y1235D]; experiment: as §1; conditions: at 10 µM
[9] = biological target: Hepatocyte growth factor receptor (Homo sapiens, UniProt P08581); experiment: as §1; conditions: at 10 µM
Hepatocyte growth factor receptor, sequence (P08581 whole entry): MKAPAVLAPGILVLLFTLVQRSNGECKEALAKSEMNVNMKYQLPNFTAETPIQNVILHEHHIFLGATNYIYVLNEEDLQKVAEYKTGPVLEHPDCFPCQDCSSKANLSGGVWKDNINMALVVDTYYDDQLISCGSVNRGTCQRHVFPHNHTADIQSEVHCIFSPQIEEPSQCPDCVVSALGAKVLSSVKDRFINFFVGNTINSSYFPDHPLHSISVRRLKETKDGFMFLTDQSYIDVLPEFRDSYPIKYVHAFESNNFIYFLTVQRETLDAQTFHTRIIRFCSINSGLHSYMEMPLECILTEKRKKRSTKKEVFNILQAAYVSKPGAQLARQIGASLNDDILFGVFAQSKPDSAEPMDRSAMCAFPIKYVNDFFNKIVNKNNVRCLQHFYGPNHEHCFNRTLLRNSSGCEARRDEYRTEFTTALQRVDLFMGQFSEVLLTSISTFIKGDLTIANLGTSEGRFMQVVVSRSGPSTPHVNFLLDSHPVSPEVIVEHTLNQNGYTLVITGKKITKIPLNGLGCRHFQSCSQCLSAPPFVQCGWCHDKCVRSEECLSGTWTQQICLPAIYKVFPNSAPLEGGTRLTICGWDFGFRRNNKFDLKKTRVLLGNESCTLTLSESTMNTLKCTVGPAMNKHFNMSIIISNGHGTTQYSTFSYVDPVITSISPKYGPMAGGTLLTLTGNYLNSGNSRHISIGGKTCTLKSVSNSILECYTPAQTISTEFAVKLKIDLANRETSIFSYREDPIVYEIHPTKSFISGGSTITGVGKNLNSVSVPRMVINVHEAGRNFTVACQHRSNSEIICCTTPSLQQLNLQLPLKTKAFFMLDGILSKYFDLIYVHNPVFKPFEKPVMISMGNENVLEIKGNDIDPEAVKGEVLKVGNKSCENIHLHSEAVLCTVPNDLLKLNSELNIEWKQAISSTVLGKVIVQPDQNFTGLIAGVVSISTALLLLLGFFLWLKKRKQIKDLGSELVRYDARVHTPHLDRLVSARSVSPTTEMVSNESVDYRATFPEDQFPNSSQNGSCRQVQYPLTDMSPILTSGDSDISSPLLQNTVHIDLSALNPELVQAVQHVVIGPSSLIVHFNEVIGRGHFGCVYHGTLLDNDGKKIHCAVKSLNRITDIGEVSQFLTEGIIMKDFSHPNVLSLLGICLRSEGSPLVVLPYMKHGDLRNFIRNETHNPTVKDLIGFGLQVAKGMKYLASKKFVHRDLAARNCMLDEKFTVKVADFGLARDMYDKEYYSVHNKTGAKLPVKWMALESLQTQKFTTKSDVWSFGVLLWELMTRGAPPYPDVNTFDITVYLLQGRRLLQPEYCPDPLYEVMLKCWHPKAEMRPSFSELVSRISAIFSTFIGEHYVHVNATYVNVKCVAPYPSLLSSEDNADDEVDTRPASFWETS

Hepatocyte growth factor receptor (Homo sapiens), P08581 [M1250T], sequence (P08581 whole entry M1250T): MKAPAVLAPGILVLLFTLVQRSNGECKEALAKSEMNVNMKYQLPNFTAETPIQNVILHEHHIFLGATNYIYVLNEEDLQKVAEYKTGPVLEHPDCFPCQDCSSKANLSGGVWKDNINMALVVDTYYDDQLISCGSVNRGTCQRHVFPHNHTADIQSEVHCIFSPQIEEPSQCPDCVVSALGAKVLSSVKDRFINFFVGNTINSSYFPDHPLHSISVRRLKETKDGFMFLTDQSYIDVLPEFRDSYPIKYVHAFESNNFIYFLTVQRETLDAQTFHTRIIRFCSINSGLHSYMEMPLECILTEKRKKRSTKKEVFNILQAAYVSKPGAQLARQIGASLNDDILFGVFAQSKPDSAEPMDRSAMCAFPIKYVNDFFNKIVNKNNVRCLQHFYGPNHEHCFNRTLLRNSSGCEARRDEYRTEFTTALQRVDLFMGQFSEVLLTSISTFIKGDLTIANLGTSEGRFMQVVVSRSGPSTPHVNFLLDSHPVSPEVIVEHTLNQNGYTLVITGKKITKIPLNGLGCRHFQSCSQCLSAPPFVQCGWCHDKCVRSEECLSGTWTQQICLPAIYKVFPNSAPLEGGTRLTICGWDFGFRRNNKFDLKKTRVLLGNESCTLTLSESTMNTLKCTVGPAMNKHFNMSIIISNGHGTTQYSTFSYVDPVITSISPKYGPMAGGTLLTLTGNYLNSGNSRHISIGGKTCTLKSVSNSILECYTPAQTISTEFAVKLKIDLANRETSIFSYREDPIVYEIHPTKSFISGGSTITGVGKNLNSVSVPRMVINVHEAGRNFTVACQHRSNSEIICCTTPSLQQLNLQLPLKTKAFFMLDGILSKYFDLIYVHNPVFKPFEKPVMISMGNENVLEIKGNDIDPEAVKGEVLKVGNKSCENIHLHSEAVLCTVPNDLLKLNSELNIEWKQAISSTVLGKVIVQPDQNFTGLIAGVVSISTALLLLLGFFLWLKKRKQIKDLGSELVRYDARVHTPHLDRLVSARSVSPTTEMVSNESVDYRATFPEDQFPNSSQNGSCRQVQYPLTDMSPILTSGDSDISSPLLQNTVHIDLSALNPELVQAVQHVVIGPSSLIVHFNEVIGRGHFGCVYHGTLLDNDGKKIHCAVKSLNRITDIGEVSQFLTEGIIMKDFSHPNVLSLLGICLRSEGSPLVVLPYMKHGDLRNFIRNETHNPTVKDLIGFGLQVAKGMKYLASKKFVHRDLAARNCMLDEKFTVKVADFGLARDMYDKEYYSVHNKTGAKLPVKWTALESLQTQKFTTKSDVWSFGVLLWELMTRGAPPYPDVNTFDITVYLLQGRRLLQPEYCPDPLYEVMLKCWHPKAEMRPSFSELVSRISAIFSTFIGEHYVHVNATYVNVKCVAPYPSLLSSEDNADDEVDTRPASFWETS
Tyrosine-protein kinase BTK, sequence (Q06187 whole entry): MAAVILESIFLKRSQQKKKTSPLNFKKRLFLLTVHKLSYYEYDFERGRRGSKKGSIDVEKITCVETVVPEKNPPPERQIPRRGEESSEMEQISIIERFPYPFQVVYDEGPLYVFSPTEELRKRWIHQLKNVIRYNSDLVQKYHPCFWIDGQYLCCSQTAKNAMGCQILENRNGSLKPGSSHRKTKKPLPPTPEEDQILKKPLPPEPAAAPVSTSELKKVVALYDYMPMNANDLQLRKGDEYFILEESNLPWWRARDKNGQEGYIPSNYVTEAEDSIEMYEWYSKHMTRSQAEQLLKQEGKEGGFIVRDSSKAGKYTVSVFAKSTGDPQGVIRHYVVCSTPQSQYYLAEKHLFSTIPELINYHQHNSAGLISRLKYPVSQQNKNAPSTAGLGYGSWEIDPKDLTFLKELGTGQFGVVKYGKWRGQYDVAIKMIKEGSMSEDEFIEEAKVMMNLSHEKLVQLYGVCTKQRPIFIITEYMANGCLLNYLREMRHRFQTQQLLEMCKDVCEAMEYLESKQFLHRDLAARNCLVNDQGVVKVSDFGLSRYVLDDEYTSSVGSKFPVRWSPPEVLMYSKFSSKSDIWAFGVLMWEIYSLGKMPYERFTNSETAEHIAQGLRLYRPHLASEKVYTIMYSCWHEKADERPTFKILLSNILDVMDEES
Mitogen-activated protein kinase 4 (Homo sapiens), sequence (P31152 whole entry): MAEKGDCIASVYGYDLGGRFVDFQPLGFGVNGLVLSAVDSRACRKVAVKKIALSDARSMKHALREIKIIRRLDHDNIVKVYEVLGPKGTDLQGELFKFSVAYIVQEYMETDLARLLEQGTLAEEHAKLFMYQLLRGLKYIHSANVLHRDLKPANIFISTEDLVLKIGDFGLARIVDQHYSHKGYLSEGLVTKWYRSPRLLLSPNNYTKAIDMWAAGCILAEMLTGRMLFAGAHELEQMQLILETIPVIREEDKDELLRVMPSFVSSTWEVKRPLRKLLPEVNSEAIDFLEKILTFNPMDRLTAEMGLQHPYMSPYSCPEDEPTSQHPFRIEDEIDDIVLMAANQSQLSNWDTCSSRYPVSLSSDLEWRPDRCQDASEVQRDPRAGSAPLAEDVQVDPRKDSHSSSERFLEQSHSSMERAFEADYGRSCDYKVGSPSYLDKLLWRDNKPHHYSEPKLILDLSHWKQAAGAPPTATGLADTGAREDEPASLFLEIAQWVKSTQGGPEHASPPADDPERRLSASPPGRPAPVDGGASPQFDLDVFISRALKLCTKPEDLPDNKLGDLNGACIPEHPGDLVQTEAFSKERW
Fibroblast growth factor receptor 4, sequence (P22455 22-802 limits assumed): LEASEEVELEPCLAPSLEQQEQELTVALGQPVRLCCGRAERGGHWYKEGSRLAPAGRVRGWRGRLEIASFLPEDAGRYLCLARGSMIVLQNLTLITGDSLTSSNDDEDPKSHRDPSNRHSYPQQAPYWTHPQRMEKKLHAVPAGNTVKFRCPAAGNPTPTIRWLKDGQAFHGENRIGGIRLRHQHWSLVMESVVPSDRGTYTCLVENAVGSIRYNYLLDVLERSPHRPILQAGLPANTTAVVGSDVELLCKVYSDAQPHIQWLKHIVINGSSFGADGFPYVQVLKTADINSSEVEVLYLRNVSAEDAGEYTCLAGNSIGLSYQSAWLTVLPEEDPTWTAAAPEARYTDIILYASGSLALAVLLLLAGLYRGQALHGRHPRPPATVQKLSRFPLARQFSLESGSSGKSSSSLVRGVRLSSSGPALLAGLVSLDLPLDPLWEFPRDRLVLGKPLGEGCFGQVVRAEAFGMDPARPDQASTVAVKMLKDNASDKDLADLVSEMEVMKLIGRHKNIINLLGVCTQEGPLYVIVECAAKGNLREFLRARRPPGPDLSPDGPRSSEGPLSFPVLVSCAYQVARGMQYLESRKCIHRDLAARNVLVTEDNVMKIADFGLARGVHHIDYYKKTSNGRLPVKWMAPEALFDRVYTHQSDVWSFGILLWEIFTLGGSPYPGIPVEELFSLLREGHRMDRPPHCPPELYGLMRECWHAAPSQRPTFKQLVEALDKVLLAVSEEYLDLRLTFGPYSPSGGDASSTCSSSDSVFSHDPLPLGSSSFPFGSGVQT

SMILES: Cc1cc([C@@H](C)Nc2ccccc2C(=O)O)c2nc(N3CCOCC3)cc(=O)n2c1 [AZD-6482]
% of control [1]: 13%

% of control [2]: 94%
SMILES: CC(=O)Nc1cccc(-n2c(=O)n(C3CC3)c(=O)c3c(Nc4ccc(I)cc4F)n(C)c(=O)c(C)c32)c1

SMILES: CN(C)C/C=C/C(=O)Nc1ccc(C(=O)N2CCCC(Nc3ncc(Cl)c(-c4c[nH]c5ccccc45)n3)C2)cc1 (centres undefined)
% of control [3]: 90%
% of control [4]: 64%

SMILES: N#Cc1cccc(-c2c[nH]c3ncnc(N4CCOCC4)c23)c1
% of control [5]: 100%

SMILES: O[C@H]1CC[C@H](Nc2ncc3nc(Nc4c(F)cc(F)cc4F)n([C@H]4CCOC4)c3n2)CC1
% of control [6]: 74%
% of control [7]: 100%
% of control [8]: 100%
% of control [9]: 100%
